Six compounds from ChEMBL document CHEMBL2424564, “Vermelhotin, an anti-inflammatory agent, suppresses nitric oxide production in RAW 264.7 cells via p38 inhibition” (J Nat Prod, 2013) can be followed below.

Active and inactive are the calls of the source. The rule behind the calls is not given here.

Series [1] relates to RAW264.7. The experiment in a line: Antiinflammatory activity in mouse RAW264.7 cells assessed as inhibition of LPS-induced nitric oxide production incubated for 15 mins prior to LPS challenge measured after 20 hrs by Griess assay. The series is classed as functional, cell-based. (In general: The Griess reaction detects nitrite, a stable product of nitric oxide.)
Series [2] deals with RAW264.7. Nature of the series: (§1) Cytotoxicity against mouse RAW264.7 cells assessed as cell survival after 20 hrs by SRB assay. The format is cell-based. The following applies: raw264.7, 20 h.
The subject of series [3] is RAW264.7. Nature of the series: Antiinflammatory activity in mouse RAW264.7 cells assessed as inhibition of LPS-induced nitric oxide production at 50 uM incubated for 15 mins prior to LPS challenge measured after 20 hrs by Griess assay relative to control. The series is classed as functional.
Series [4] can be described thus: as §1. The format is cell-based. As to conditions: RAW264.7 cells, read-out: Survival.
Series [5] concerns RAW264.7. Nature of the series: Downregulation of iNOS mRNA expression in LPS-stimulated mouse RAW264.7 cells at 16.7 uM incubated for 15 mins prior to LPS stimulation measured after 6 hrs by qRT-PCR analysis relative to vehicle-treated control. The format is functional. On the technique in general: Quantitative PCR measures a nucleic acid by following its amplification.
For series [6], the system named is RAW264.7. The experiment in a line: Downregulation of iNOS mRNA expression in LPS-stimulated mouse RAW264.7 cells incubated for 15 mins prior to LPS stimulation measured after 6 hrs by qRT-PCR analysis. The format is functional, cell-based.
Series [7] deals with RAW264.7. The experiment in a line: Downregulation of iNOS protein expression in LPS-stimulated mouse RAW264.7 cells incubated for 15 mins prior to LPS stimulation measured after 20 hrs by Western blot analysis. The format is functional, cell-based. On the technique in general: In western blotting, separated proteins are transferred to a membrane and probed.
Series [8] deals with T1, MAP kinase p38 (Mus musculus) (UniProt P47811+O08911+Q9WUI1+Q9Z1B7). The experiment in a line: Inhibition of p38 phosphorylation in LPS-stimulated mouse RAW264.7 cells at 16.7 uM incubated for 15 mins prior to LPS stimulation measured after 15 mins by Western blot analysis. The format is cell-based.
Series [9] has as its system RAW264.7. The experiment in a line: Downregulation of iNOS mRNA expression in LPS-stimulated mouse RAW264.7 cells at 1.9 uM incubated for 15 mins prior to LPS stimulation measured after 6 hrs by qRT-PCR analysis (reference value: 503.95 no unit). The series is classed as functional.
In series [10] the test system is RAW264.7. Nature of the series: Downregulation of iNOS mRNA expression in LPS-stimulated mouse RAW264.7 cells at 16.7 uM incubated for 15 mins prior to LPS stimulation measured after 6 hrs by qRT-PCR analysis (reference value: 503.95 no unit). The series is classed as functional.
Series [11] deals with RAW264.7. Nature of the series: Downregulation of iNOS mRNA expression in LPS-stimulated mouse RAW264.7 cells at 5.6 uM incubated for 15 mins prior to LPS stimulation measured after 6 hrs by qRT-PCR analysis (reference value: 503.95 no unit). The series is classed as functional.
Series [12] deals with RAW264.7. The experiment in a line: Activation of NF-kappaB in mouse RAW264.7 cells assessed as inhibition of LPS-induced IkappaB degradation at 1.9 to 16.7 uM incubated for 15 mins prior to LPS stimulation measured after 15 mins by Western blot analysis. The series is classed as cell-based.
For series [13], the system named is RAW264.7. Nature of the series: Effect on JNK phosphorylation in LPS-stimulated mouse RAW264.7 cells at 1.9 to 16.7 uM incubated for 15 mins prior to LPS stimulation measured after 15 mins by Western blot analysis. The format is cell-based.
The subject of series [14] is RAW264.7. The experiment in a line: Effect on ERK phosphorylation in LPS-stimulated mouse RAW264.7 cells at 1.9 to 16.7 uM incubated for 15 mins prior to LPS stimulation measured after 15 mins by Western blot analysis. The format is cell-based.
For series [15], the target named is T1, MAP kinase p38 (Mus musculus). Nature of the series: Inhibition of p38 phosphorylation in LPS-stimulated mouse RAW264.7 cells incubated for 15 mins prior to LPS stimulation measured after 15 mins by Western blot analysis. The format is cell-based.

The IC50 is the concentration that gives 50% inhibition. `CNC(=N)NCCC[C@H](N)C(=O)O` [TILARGININE]: the half-inhibitory concentration (IC50) with RAW264.7 [1] was determined as 21.7 µM.

In general, inhibition refers to how much of the control response was suppressed. Take `C/C=C(\C)c1c(Br)c(O)c(C)c2c1Oc1cc(O)c(Br)c(C)c1C(=O)O2`: in the series with RAW264.7 [1], the IC50 is 23.7 µM. Also, the Activity entry in the series on RAW264.7 [2] is “Toxic”. The inhibition at 50 µM in the series with RAW264.7 [3] is no less than 80%.

Take `CC[C@@H](C)C[C@]1(C)C=C/C(=C2/C(=O)O[C@H](CC(=O)OC)C2=O)O1`: the IC50 in the series on RAW264.7 [1] was found to be 6.82 µM. For the same compound, the Activity result with RAW264.7 [2] is listed as “Toxic”. Also, the inhibition at 50 µM in the series with RAW264.7 [3] was no less than 80%.

Take `C/C=C(\C)c1cc(O)c(C)c2c1Oc1cc(O)c(Cl)c(C)c1C(=O)O2`: the IC50 with RAW264.7 [1] stood at 36.1 µM. In addition, the viability at 20 h in [4] was greater than 80%. Also, in the series on RAW264.7 [3], the inhibition at 50 µM is no less than 80%.

In the case of `Cc1cc(O)c2c(c1O)C(=O)c1cc(O)cc(O)c1C2=O` [CATENARIN], the IC50 with RAW264.7 [1] was 41.3 µM. In addition, the viability at 20 h in series [4] is greater than 80%. The inhibition at 50 µM in the series with RAW264.7 [3] is no less than 80%.

In turn, `C/C=C/C1=CC=C/C(=C2\C(=O)CNC2=O)O1` [VERMELHOTIN] gave an inhibition at 16.7 µM in the series on RAW264.7 [5] greater than 95%. Further, the inhibition entry (with RAW264.7 [6]; in the series with RAW264.7 [7]; in series [15]) was “Dose-dependent effect” each time. Moreover, in series [8], the inhibition result is “Active”. For the same compound, the entries for the “fold change (FC)” value in the series on RAW264.7 [9], in the series with RAW264.7 [10] and with RAW264.7 [11] were 203.39, 13.72 and 144.02, respectively. Moreover, the IC50 in the series on RAW264.7 [1] was 5.35 µM. Further, in the series with RAW264.7 [12], the outcome was Active. Moreover, the result with RAW264.7 [13] and in the series with RAW264.7 [14] was inactive. Further, in series [4], the viability at 20 h is greater than 80%. The inhibition at 50 µM in the series with RAW264.7 [3] was no less than 80%.
